Experiments:
[1] = system: human pancreatic carcinoma cell line panc-1; experiment: In vitro tumor cell proliferation inhibition (MTT): panc-1; format: cell-based
Excerpt: (§1) The purpose of the experiment was to test the inhibition activity of the compounds of the invention for in vitro human tumor cell proliferation by the methyl thiazolyl tetrazolium (MTT) colorimetry.
(§2) Main reagents: RPMI-1640, fetal bovine serum, pancreatin, etc. were purchased from Gibco BRL Company (Invitrogen Corporation, USA) and IMDM medium that was purchased from American Type Culture Collection (ATCC). Methyl thiazolyl tetrazolium (MTT) and dimethyl sulfoxide (DMSO) were products from Sigma Company (USA). Pyrazolopyrimidine derivatives were composed by the inventor. During in vitro experiment, 100% DMSO was prepared into 10 mM storage solution, the solution was stored in a refrigerator at −20° C. for future use, and was diluted to the required concentration with complete culture solution before use.
(§3) Cell line and culture: Human leukemia cell line MV4-11, Jurkat, K562, human thyrophyma cell line TT, human gastric carcinoma cell line MKN-45, human malignant melanoma cell lines A375 and A875, human pancreatic carcinoma cell line panc-1, human cervical carcinoma cell line HELA, human colorectal carcinoma cell line HCT116, etc. were purchased from American type culture collection and were preserved by this laboratory. All leukemia cell lines (except MV4-11), gastric carcinoma cell lines and thyrophyma cell lines were cultured in RPMI-1640 complete medium containing 10% fetal bovine serum, 100 U/mL penicillin and 100 μg/mL streptomycin at 37° C. in 5% CO2. The remaining cell lines were cultured in DMEM complete medium containing 10% fetal bovine serum (containing 20% MV4-11 cell), 100 U/mL penicillin and 100 µg/mL streptomycin at 37° C. in 5% CO2.
(§4) Cell suspension with cell concentration of 1-2×10^4/mL was adjusted with the complete cell medium and inoculated in a 96-well plate, with each well filled with 200 μl cell suspension that was cultured overnight. On the next day, supernatant was sucked and abandoned (supernatant was sucked upon centrifugation of suspension cells), and then cells were processed with test compounds at gradient concentrations respectively. Meanwhile, a negative control group free from drug and a solvent control group with equal volume were set, and the DMSO concentration was 0.1%. Each dose group was provided with three wells and cultured at 37° C. in 5% CO2. After 72 hours, 20 μl 5 mg/mL MTT reagent was added to each well, and cultured for another 2 to 4 hours, the supernatant was abandoned; 150 μL DMSO was added to each well again, vibrated and mixed evenly for 15 minutes; the absorbance (A) values (proportional to living cell amount) were determined with a microplate reader (λ=570 nm) and averaged. […] Experiment was repeated for 3 times at least. Experimental data were expressed with means, data statistics were tested by t, and P<0.05 means that difference has a statistical significance. The cell proliferation inhibition effects of all compounds as follows are expressed by IC50 or inhibition rate.

[2] = system: Abl/Abl (T315I)(h); experiment: Kinase inhibition activity test, isotope labeling: Abl; format: biochemical, human; settings: test compound at a concentration of 10 μM
Description: The purpose of this experiment was to test the inhibitory activity of the compound of the invention for in vitro kinase with the isotope labeling method (the γ phosphate group on ATP was labeled). In this experiment, the in vitro activity inhibition of such kinases as FLT3, VEGFR2, FLT1, FLT4, RET, c-RAF, B-RAF, c-KIT, PDGFα, PDGFβ, FGFR2, FGFR1, EphA2, EphB2, SRC, ABL, ALK and Met was tested respectively. Staurosporine was reference molecule (or referred to as positive control). The kinase inhibition activity of the test compound was expressed by half-inhibitory concentration (IC50) or the kinase activity inhibition rate of the test compound at a concentration of 10 μM. The IC50 value could be obtained by calculating the kinase activity inhibition rate of the test compound at different concentrations.
20 mM 3-(N-morpholinyl)propanesulfonic acid (MOPS); 1 mM ethylenediaminetetraacetic acid (EDTA), 0.01% Brij 35 (Brij-35), 5% glycerol, 0.1% mercaptoethanol, 1 mg/mL bovine serum albumin (BSA), 10 mM manganous dichloride solution (MnCl2), 0.1 mg/mL glutamic acid/tyrosine (4:1) polypeptide (poly(Glu, Tyr)4:1), 50 μM EAIYAAPFAKKK (substrate of FLT3), 0.33 mg/mL myelin basic protein (substrate of VEGFR2), 250 μM KKKSPGEYVNIEFG (substrate of FLT1(h)), 500 μM GGEEEEYFELVKKKK (substrate of FLT4(h)), 250 μM KKKSPGEYVNIEFG (substrate of RET), 0.66 mg/mL myelin basic protein (substrate of C-RAF), 250 μM GGMEDIYFEFMGGKKK (substrate of c-Kit), 250 μM GGMEDIYFEFMGGKKK (substrate of PDGFα), 250 μM KKKSPGEYVNIEFG (substrate of FGFR1), […] GGEEEEYFELVKKKK (substrate of SRC), 50 μM EAIYAAPFAKKK (substrate of ABL), 250 μM KKKSPGEYVNIEFG (substrate of ALK), 250 μM KKKSPGEYVNIEFG (substrate of Met(h)), 10 mM magnesium acetate and γ-^33 P-ATP solution, stop buffer (3% phosphate buffer), washing buffer (75 mM phosphate solution), methanol, Filtermat A membrane, FLT3, VEGFR2, FLT3, VEGFR2, FLT1, FLT4, RET, c-RAF, B-RAF, c-KIT, PDGFRα, PDGFRβ, FGFR2, FGFR1, EphA2, EphB2, SRC, ABL, ALK, Met and other kinases, and the test compounds.
Buffers (8 mM MOPS with pH value of 7.0, 0.2 mM EDTA and 10 mM MnCl2), (5-10 mU) kinases to be tested (FLT3, VEGFR2, FLT1, FLT4, RET, c-RAF, B-RAF, c-KIT, PDGFRα, PDGFRβ, FGFR2, FGFR1, EphA2, EphB2, SRC, ABL, ALK and Met), substrates of kinases to be tested (refer to experimental materials), 10 mM magnesium acetate and γ-^33 P-ATP solution, and test compounds at different concentrations were added to a reaction tube orderly. […] Reaction was terminated with 5 μL 3% phosphate buffer finally, and 10 μL reaction solution was titrated to the Filtermat A membrane; solution was washed for 3 times with 75 mM phosphate solution with each time lasting 5 minutes, and then washed once with methanol. Finally, the Filtermat A membrane was dried, and scintillation counting was performed on the membrane, with scintillation count reflecting the phosphorylation degree of the substrates, so that the activity inhibition of kinase could be characterized.

[3] = system: human thyrophyma cell line TT; experiment: In vitro tumor cell proliferation inhibition (MTT): TT; format: cell-based; settings: Homo sapiens, 72 h
Excerpt: as §1, §2, §3, §4

Compound	IC50 ([1]; Homo sapiens, PANC-1, 72 hours) [µM]	IC50 ([1]; 72 hours) [µM]	Activity inhibition rate Abl/Abl (T315I)(h) [2] [%]	IC50 [3] [µM]
C[C@@H](NC(=O)Nc1ccc(Nc2ncnc3[nH]ncc23)cc1)c1ccccc1 [4b-2, (R)-1-(4-(1H-pyrazolopyrimidine-4-amido)phenyl)-3-(1-phenethyl)urea]	< 50			
C[C@H](NC(=O)Nc1ccc(Oc2ncnc3[nH]ncc23)cc1)c1ccccc1 [4a-18, (S)-1-(4-((1H-pyrazolopyrimidine-4-yl)oxy)phenyl)-3-(1-phenethyl)urea]		< 50	45	
O=C(Nc1ccc(Oc2ncnc3[nH]ncc23)cc1)Nc1ccc(N2CCOCC2)cc1 [4a-16, 1-(4-((1H-pyrazolopyrimidine-4-yl)oxy)phenyl)-3-(4-morpholinylphenyl)urea]	< 50			
COc1ccc(NC(=O)Nc2ccc(NC(=O)N3C=NC=C4NNC=C43)cc2)cc1 [4b-6, 1-(4-(1H-pyrazolopyrimidine-4-amido)phenyl)-3-(4-methoxyphenyl)urea]	< 50			
CC(C)n1ncc2c(Oc3ccc(NC(=O)Nc4cc(C(C)(C)C)on4)cc3)ncnc21 [5a-4, 1-(5-tert-butylisoxazol-3-yl)-3-(4-(1-isopropyl-(1H-pyrazolopyrimidine-4-yl)oxy)phenyl)urea]	< 50			9.89
C[C@H](NC(=O)Nc1ccc(Nc2ncnc3[nH]ncc23)cc1)c1ccccc1 [4b-4]		< 50		
O=C(Nc1ccccc1)Nc1ccc(Oc2ncnc3[nH]ncc23)cc1 [4a-15, 1-(4-((1H-pyrazolopyrimidine-4-yl)oxy)phenyl)-3-phenylurea]		< 50	99	
COc1cccc(NC(=O)Nc2ccc(Nc3ncnc4[nH]ncc34)cc2)c1 [4b-3]	< 50			
O=C(Nc1ccc(NC(=O)N2C=NC=C3NNC=C32)cc1)Nc1ccc(Cl)c(C(F)(F)F)c1 [4b-5, 1-(4-(1H-pyrazolopyrimidine-4-amido)phenyl)-3-(4-chloro-3-(trifluoromethyl)phenyl)urea]				9.48
1-(4-((1H-pyrazolopyrimidine-4-yl)oxy)phenyl)-3-(methylcyclohexyl)urea [4a-20]		< 50	19	
O=C(Nc1ccc(Sc2ncnc3[nH]ncc23)cc1)Nc1ccc(C(F)(F)F)cc1 [4c-1]	< 50		>30	
O=C(Nc1ccc(Oc2ncnc3[nH]ncc23)cc1)Nc1cc(C(F)(F)F)cc(C(F)(F)F)c1 [4a-12, 1-(4-((1H-pyrazolopyrimidine-4-yl)oxy)phenyl)-3-(3,5-bis(trifluoromethyl)phenyl)urea]		< 50	78	
Cc1cc(C)c(NC(=O)Nc2ccc(NC(=O)N3C=NC=C4NNC=C43)cc2)c(C)c1 [4b-7, 1-(4-(1H-pyrazolopyrimidine-4-amido)phenyl)-3-(2,4,6-trimethylphenyl)urea]	< 50			
1-(4-((1H-pyrazolopyrimidine-4-yl)oxy)-3-fluorophenyl)-3-(3-trifluoromethoxy)phenyl)urea [4a-8]		4.65	34	
CC(C)c1cccc(NC(=O)Nc2ccc(Oc3ncnc4[nH]ncc34)c(F)c2)c1 [4a-7, 1-(4-((1H-pyrazolopyrimidine-4-yl)oxy)-3-fluorophenyl)-3-(3-isopropylphenyl)urea]		< 50	60	
O=C(Nc1ccc(Oc2ncnc3[nH]ncc23)c(F)c1)Nc1ccc(Cl)c(C(F)(F)F)c1 [4a-10, 1-(4-((1H-pyrazolopyrimidine-4-yl)oxy)-3-fluorophenyl)-3-(4-chloro-3-(trifluoromethyl)phenyl)urea]		< 50	67	
O=C(Nc1cccc(Nc2ncnc3[nH]ncc23)c1)Nc1ccc(F)c(Cl)c1 [4b-1]	< 50			
C[C@@H](NC(=O)Nc1ccc(Oc2ncnc3[nH]ncc23)cc1)c1ccccc1 [4a-19, (R)-1-(4-((1H-pyrazolopyrimidine-4-yl)oxy)phenyl)-3-(1-phenethyl)urea]		< 50	21	

Reference: patent US9828375B2, “4-position substituted pyrazolopyrimidine derivative, and use thereof in drug preparation” (Guangxi Wuzhou Pharmaceuticals (Group) Co., Ltd., priority 2012, dated 2017)
